Measurements as given in publication PMC4641453 (Science translational medicine, 2015).
Values after ≈ are worked out from the molar mass of the structure shown. Like-named read-outs stand apart in the source and are kept apart here.

Legend:
[1] = tested on: S. pneumoniae isolates; format: cell-based; details: Streptococcus pneumoniae
[2] = tested on: Streptococcus pneumoniae (R6); experiment: microbe, parasite or virus in culture; format: cell-based; details: read-out: MIC Spn
[3] = tested on: Streptococcus pyogenes (ATCC 700294); experiment: microbe, parasite or virus in culture; format: cell-based; details: ATCC700294, read-out: MIC Spy
[4] = tested on: MSSA, Staphylococcus aureus (ATCC 29213); experiment: microbe, parasite or virus in culture; format: cell-based; details: ATCC29213|MSSA, read-out: MIC MSSA
[5] = tested on: MRSA, Staphylococcus aureus (NRS70); experiment: microbe, parasite or virus in culture; format: cell-based; details: MRSA|NRS70, read-out: MIC MRSA
[6] = tested on: Enterococcus faecalis (ATCC 33186); experiment: microbe, parasite or virus in culture; format: cell-based; details: ATCC33186, read-out: MIC Ef
[7] = tested on: Bacillus subtilis (ATCC 23857); experiment: microbe, parasite or virus in culture; format: cell-based; details: ATCC23857, read-out: MIC Bs
[8] = tested on: Listeria monocytogenes (NS512); experiment: microbe, parasite or virus in culture; format: cell-based
[9] = tested on: Neisseria gonorrhoeae (ATCC 49226); format: cell-based; details: 40 μg of compound on 6 mm disc; range of two experiments
[10] = tested on: Neisseria meningitidis (ATCC 13077); experiment: microbe, parasite or virus in culture; format: cell-based; details: ATCC13077, read-out: Zone of inhibition Nm
[11] = tested on: Haemophilus influenzae (ATCC 49247); experiment: microbe, parasite or virus in culture; format: cell-based; details: ATCC49247, read-out: Zone of inhibition Hi
[12] = tested on: Legionella pneumophila (ATCC 33153); experiment: microbe, parasite or virus in culture; format: cell-based
[13] = tested on: Streptococcus pneumoniae mutants resistant to compound 1; experiment: In vitro generation and MIC testing of compound 1 resistant mutants; format: cell-based; details: fifteen compound 1 resistant S. pneumoniae clones (RpsE G27R)
[14] = tested on: Moraxella catarrhalis (ATCC 25238); experiment: microbe, parasite or virus in culture; format: cell-based; details: ATCC25238, read-out: MIC Moraxella catarrhalis
[15] = format: physicochemical; details: pH 7
[16] = tested on: S. pneumoniae strain D39x; experiment: Mouse intranasal pneumococcal challenge, pneumonia and bacteremia; format: in vivo, mice
[17] = tested on: S. pneumoniae strain TIGR4; experiment: Mouse intranasal pneumococcal challenge, bacteremia and meningitis; format: in vivo, mice; details: 5 mg/kg from 18 hours after intranasal challenge
[18] = mean (% CV); cited from earlier work
[19] = rat, in vivo, 10 mg/kg; cited from earlier work
[20] = tested on: Chlamydia trachomatis serovar L2 (strain 434/Bu); experiment: Chlamydial susceptibility testing in infected HeLa 229 monolayers; details: up to 100 μg/mL, C. trachomatis-infected monolayers
[21] = ATCC700904, read-out: MIC ATCC700904

SMILES: CO/N=C(\C(=O)N[C@@H]1C(=O)N2C(C(=O)O)=C(COC(C)=O)CS[C@H]12)c1csc(N)n1 [Cefotaxime]
- MIC [1, 21]: 0.2 µg/mL (≈ 0.439 µM)
- MIC ([1]; read-out: MIC 8249): 3 µg/mL (≈ 6.59 µM)
- MIC ([1]; read-out: MIC Daw19): 1 µg/mL (≈ 2.2 µM)
- MIC ([1]; read-out: MIC Daw26): 3 µg/mL (≈ 6.59 µM)
- MIC ([1]; read-out: MIC Daw47): 3 µg/mL (≈ 6.59 µM)

SMILES: CC[C@H]1OC(=O)[C@H](C)[C@@H](O[C@H]2C[C@@](C)(OC)[C@@H](O)[C@H](C)O2)[C@H](C)[C@@H](O[C@@H]2O[C@H](C)C[C@H](N(C)C)[C@H]2O)[C@](C)(O)C[C@@H](C)C(=O)[C@H](C)[C@@H](O)[C@]1(C)O [Erythromycin]
- MIC [1, 21]: 2 µg/mL (≈ 2.73 µM)
- MIC ([1]; read-out: MIC 8249): > 2 µg/mL
- MIC ([1]; read-out: MIC BAA-1407): 50 µg/mL (≈ 68.1 µM)
- MIC ([1]; read-out: MIC Daw7): ≤ 0.2 µg/mL
- MIC ([1]; read-out: MIC Daw8): ≤ 0.2 µg/mL
- MIC ([1]; read-out: MIC Daw9): 2 µg/mL (≈ 2.73 µM)
- MIC ([1]; read-out: MIC Daw19): 1 µg/mL (≈ 1.36 µM)
- MIC ([1]; read-out: MIC Daw26): 0.1 µg/mL (≈ 0.136 µM)
- MIC ([1]; read-out: MIC Daw27): 1 µg/mL (≈ 1.36 µM)
- MIC ([1]; read-out: MIC Daw47): 0.03 µg/mL (≈ 0.0409 µM)
- MIC ([1]; read-out: MIC Daw62): ≤ 0.2 µg/mL
- MIC ([1]; read-out: MIC Daw64): ≤ 0.2 µg/mL
- MIC ([1]; read-out: MIC OVA2): 1 µg/mL (≈ 1.36 µM)
- MIC ([1]; read-out: MIC R6): ≤ 0.2 µg/mL

SMILES: CC1(C)S[C@@H]2[C@H](NC(=O)Cc3ccccc3)C(=O)N2[C@H]1C(=O)O [Penicillin G]
- MIC [1, 21]: > 2 µg/mL
- MIC ([1]; read-out: MIC 8249): > 2 µg/mL
- MIC ([1]; read-out: MIC A66.1x): ≤ 0.2 µg/mL
- MIC ([1]; read-out: MIC BAA-1407): 2 µg/mL (≈ 5.98 µM)
- MIC ([1]; read-out: MIC BHN97x): ≤ 0.2 µg/mL
- MIC ([1]; read-out: MIC D39X): ≤ 0.2 µg/mL
- MIC ([1]; read-out: MIC Daw7): 3 µg/mL (≈ 8.97 µM)
- MIC ([1]; read-out: MIC Daw8): 3 µg/mL (≈ 8.97 µM)
- MIC ([1]; read-out: MIC Daw9): 2 µg/mL (≈ 5.98 µM)
- MIC ([1]; read-out: MIC Daw19): 3 µg/mL (≈ 8.97 µM)
- MIC ([1]; read-out: MIC Daw26): 3 µg/mL (≈ 8.97 µM)
- MIC ([1]; read-out: MIC Daw27): 3 µg/mL (≈ 8.97 µM)
- MIC ([1]; read-out: MIC Daw47): 3 µg/mL (≈ 8.97 µM)
- MIC ([1]; read-out: MIC Daw62): 3 µg/mL (≈ 8.97 µM)
- MIC ([1]; read-out: MIC Daw64): 2 µg/mL (≈ 5.98 µM)
- MIC ([1]; read-out: MIC OVA2): ≤ 0.2 µg/mL
- MIC ([1]; read-out: MIC R6): ≤ 0.2 µg/mL
- MIC ([1]; read-out: MIC T4X): ≤ 0.2 µg/mL

SMILES: CN[C@@H]1[C@H](O)[C@H](NC)[C@H]2O[C@@]3(O)C(=O)C[C@@H](C)O[C@H]3O[C@@H]2[C@H]1O [Spectinomycin, spectinomycin]
- MIC [2]: 12.5 µg/mL (≈ 37.6 µM)
- MIC [3]: 25 µg/mL (≈ 75.2 µM)
- MIC [4]: 100 µg/mL (≈ 301 µM)
- MIC [5]: > 200 µg/mL
- MIC [6]: 100 µg/mL (≈ 301 µM)
- MIC [7]: 12.5 µg/mL (≈ 37.6 µM)
- MIC ([8]; Listeria monocytogenes, read-out: MIC Lm): 50 µg/mL (≈ 150 µM)
- MIC Lm ([8]; NS512, range of two independent experiments): 50 µg/mL (≈ 150 µM)
- MIC [1, 21]: 25 µg/mL (≈ 75.2 µM)
- MIC ([1]; read-out: MIC 8249): 25 µg/mL (≈ 75.2 µM)
- MIC ([1]; read-out: MIC A66.1x): 6 µg/mL (≈ 18.1 µM)
- MIC ([1]; read-out: MIC BAA-1407): 13 µg/mL (≈ 39.1 µM)
- MIC ([1]; read-out: MIC BHN97x): 6 µg/mL (≈ 18.1 µM)
- MIC ([1]; read-out: MIC D39X): 13 µg/mL (≈ 39.1 µM)
- MIC ([1]; read-out: MIC Daw7): 25 µg/mL (≈ 75.2 µM)
- MIC ([1]; read-out: MIC Daw8): 25 µg/mL (≈ 75.2 µM)
- MIC ([1]; read-out: MIC Daw9): 13 µg/mL (≈ 39.1 µM)
- MIC ([1]; read-out: MIC Daw19): 25 µg/mL (≈ 75.2 µM)
- MIC ([1]; read-out: MIC Daw26): 50 µg/mL (≈ 150 µM)
- MIC ([1]; read-out: MIC Daw27): 25 µg/mL (≈ 75.2 µM)
- MIC ([1]; read-out: MIC Daw47): 25 µg/mL (≈ 75.2 µM)
- MIC ([1]; read-out: MIC Daw62): 25 µg/mL (≈ 75.2 µM)
- MIC ([1]; read-out: MIC Daw64): 25 µg/mL (≈ 75.2 µM)
- MIC ([1]; read-out: MIC OVA2): 13 µg/mL (≈ 39.1 µM)
- MIC ([1]; read-out: MIC R6): 13 µg/mL (≈ 39.1 µM)
- MIC ([1]; read-out: MIC T4X): 13 µg/mL (≈ 39.1 µM)
- Zone of inhibition Ng [9]: 10–11.5 mm
- zone of inhibition at 40 µg/disc [10]: 13 to 15 mm
- zone of inhibition at 40 µg/disc [11]: 12 mm
- Zone of inhibition Lp ([12]; 40 μg of compound on 6 mm disc, 48 hours, range of two experiments): completely inactive
- zone of inhibition at 40 µg/disc ([12]; Legionella pneumophila, ATCC33153, 48 h, read-out: Zone of inhibition Lp): 0 mm
- MIC against resistant clones [13]: weakly susceptible
- MIC [14]: 6 µg/mL (≈ 18.1 µM)
- Chemical stability (percent of parent over time) [15]: continuously declined over time
- Survival of infected mice ([16]; 5 mg/kg BID subcutaneous from 18 hours post challenge, D39x, n=5): died or were humanely euthanized by 120 hours post challenge
- Bioluminescent imaging of infection ([16]; 72 hours post challenge, 5 mg/kg BID): systemic bacterial infection
- Survival of infected mice [17]: did not survive beyond 96 hours
- Microsomal Stability t1/2 [18]: 6.43 (0.13) hr
- IV Pharmacokinetics CL [19]: 0.60 (11.5) L/hr/Kg
- IV Pharmacokinetics T1/2 [19]: 0.75 (49.3) hr
- IV Pharmacokinetics Vd [19]: 0.76 (45.2) L/Kg
- IV Pharmacokinetics fe (fraction excreted unchanged in urine) [19]: 0.55 (27.0)
- Reduction of intracellular inclusions [20]: failed to reduce intracellular inclusions

SMILES: [H]/N=C(/N)N[C@H]1[C@H](O)[C@@H](O)[C@H](O[C@@H]2O[C@@H](C)[C@](O)(C=O)[C@H]2O[C@@H]2O[C@@H](CO)[C@H](O)[C@@H](O)[C@@H]2NC)[C@@H](N/C(N)=N\[H])[C@@H]1O [Streptomycin]
- MIC [1, 21]: > 200 µg/mL
- MIC ([1]; read-out: MIC 8249): > 200 µg/mL
- MIC ([1]; read-out: MIC A66.1x): 13 µg/mL (≈ 22.4 µM)
- MIC ([1]; read-out: MIC BAA-1407): 50 µg/mL (≈ 86 µM)
- MIC ([1]; read-out: MIC BHN97x): 13 µg/mL (≈ 22.4 µM)
- MIC ([1]; read-out: MIC D39X): 13 µg/mL (≈ 22.4 µM)
- MIC ([1]; read-out: MIC Daw7): 25 µg/mL (≈ 43 µM)
- MIC ([1]; read-out: MIC Daw8): 25 µg/mL (≈ 43 µM)
- MIC ([1]; read-out: MIC Daw9): > 200 µg/mL
- MIC ([1]; read-out: MIC Daw62): 25 µg/mL (≈ 43 µM)
- MIC ([1]; read-out: MIC Daw64): 25 µg/mL (≈ 43 µM)
- MIC ([1]; read-out: MIC OVA2): 13 µg/mL (≈ 22.4 µM)
- MIC ([1]; read-out: MIC R6): 13 µg/mL (≈ 22.4 µM)
- MIC ([1]; read-out: MIC T4X): 6 µg/mL (≈ 10.3 µM)

SMILES: CC1(C)S[C@@H]2[C@H](NC(=O)[C@H](N)c3ccccc3)C(=O)N2[C@H]1C(=O)O [ampicillin]
- Survival of infected mice, 9 day experiment ([16]; matched doses 2.5 or 5 mg/kg): all survived
- Reduction of bacterial titers ([16]; within 48 hours post infection, 2.5 or 5 mg/kg): more than 3 logs
